Consider 11 compounds from publication PMC6273229, “Imidazopyranotacrines as Non-Hepatotoxic, Selective Acetylcholinesterase Inhibitors, and Antioxidant Agents for Alzheimer′s Disease Therapy” (Molecules, 2016).

Series [1] addresses T1, BuChE from horse serum (eqBuChE) (Equus caballus, UniProt P81908).
T1 construct: BuChE from horse serum (lyophilized powder, Sigma-Aldrich); purchased Sigma-Aldrich; host or cells: horse serum
Nature of the series: biochemical. Conditions: mean ± SEM. How it is done: The % inhibitory activity on BuChE from horse serum (lyophilized powder, Sigma-Aldrich), was evaluated spectrophotometrically by the method of Ellman et al.. BuChE stock solutions were first dissolved in 0.1 M phosphate buffer (pH 8.0) and then aliquoted in small vials. Compounds were dissolved in DMSO at 10 mM. The reaction was carried out in a final volume of 3 mL of a 0.1 M phosphate-buffered solution at pH 8.0, containing 5,5′-dithiobis-2-nitrobenzoic acid (DTNB, 2625 µL, 0.35 mM, final concentration), eqBuChE (60 µL, 0.05 U/mL final concentration), tested compound (3 µL, 10 µM, final concentration) and 1% w/v Bovine Serum Albumin phosphate-buffered (pH 8.0) solution (BSA, 40 µL). The inhibition with respect to control without compound was determined by pre-incubating this mixture at rt with each compound for 10 min. After this period, butyrylthiocholine iodide (150 µL, 0.5 mM final concentration) was added and incubated for 15 min at rt.

In series [2] the target is AChE from Electrophorus electricus (EeAChE) (Electrophorus electricus, UniProt O42275). Nature of the series: biochemical. Conditions: for solubility: pH 8. How it is done: The inhibitory activity on AChE from Electrophorus electricus (type VI-S, Sigma, Milan, Italy), was evaluated spectrophotometrically by the method of Ellman et al.. AChE stock solution was prepared by dissolving EeAChE lyophilized powder (Sigma) in 0.1 M phosphate buffer (pH = 8.0) containing 0.1% Triton X-100. Stock solutions of the tested compounds (1 mM) were prepared in MeOH/H2O 50/50 (v/v) and diluted in MeOH/H2O 50/50 (v/v). […] Assay solutions with and without inhibitor were preincubated at 37 °C for 20 min followed by the addition of substrate. Blank solutions containing all components except EeAChE were prepared in parallel to account for the non-enzymatic hydrolysis of the substrate. Initial rate assays were performed at 37 °C with a Jasco V-530 double beam spectrophotometer. […] The velocity in the presence and absence of inhibitor were compared and % inhibition was calculated. The results were plotted by placing the percentage of inhibition in function of the decimal log of the final inhibitor concentration. Linear regression and IC50 values were calculated using Microcal Origin 3.5 software (Microcal Software, […]).
AChE from Electrophorus electricus (EeAChE), sequence (O42275 24-633): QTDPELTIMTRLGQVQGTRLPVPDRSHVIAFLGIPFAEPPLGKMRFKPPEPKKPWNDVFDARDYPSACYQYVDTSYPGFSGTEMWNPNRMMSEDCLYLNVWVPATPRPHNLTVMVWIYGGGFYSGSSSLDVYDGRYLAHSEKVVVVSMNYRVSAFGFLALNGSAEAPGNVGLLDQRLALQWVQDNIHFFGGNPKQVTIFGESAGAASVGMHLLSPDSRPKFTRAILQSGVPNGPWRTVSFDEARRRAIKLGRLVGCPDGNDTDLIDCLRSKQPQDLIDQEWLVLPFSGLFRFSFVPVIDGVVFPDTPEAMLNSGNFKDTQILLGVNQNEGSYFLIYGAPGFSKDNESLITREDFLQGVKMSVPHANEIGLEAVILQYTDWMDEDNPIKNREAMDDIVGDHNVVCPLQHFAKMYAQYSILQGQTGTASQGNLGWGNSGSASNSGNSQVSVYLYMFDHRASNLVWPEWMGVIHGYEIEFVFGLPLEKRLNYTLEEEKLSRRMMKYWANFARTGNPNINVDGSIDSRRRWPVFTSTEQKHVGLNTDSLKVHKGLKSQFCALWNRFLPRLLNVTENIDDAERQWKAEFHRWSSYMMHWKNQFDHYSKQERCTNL

Series [3] in a line: Oxygen radical absorbance capacity by fluorescence (ORAC-FL). Conditions: Trolox equivalents, mean ± SD. The protocol:
The antioxidant power of the imidazopyranotacrines 1–13 was determined by the oxygen radical absorbance capacity by fluorescence (ORAC-FL) method using fluorescein as fluorescent probe and Trolox (6-hydroxy-2,5,7,8-tetramethylchroman-2-carboxylic acid) as a reference compound. Results are expressed as Trolox equivalents (μmol Trolox per μmol test compound).
The radical scavenging activity of imidazopyranotacrines 1–13 was determined by the ORAC-FL method using a Varioskan Flash plate reader with built-in injectors (Thermo Scientific). Trolox, 2,2′-azobis(amidinopropane) dihydrochloride (AAPH) and fluorescein (FL) were purchased from Sigma-Aldrich. The reaction was performed at 37 °C in 75 mM phosphate buffer (pH = 7.4), and the final volume reaction mixture was 200 µL. The final concentrations were 1–8 µM for Trolox and 0.1–1 µM for the tested compounds. Briefly, in a black 96-well microplate (Nunc), antioxidant (20 µL) and fluorescein (120 µL) were incubated for 15 min at 37 °C. Then, 2,2′-azobis(amidinopropane) dihydrochloride (60 µL) was added using the built-in injector. […] All assays were made in triplicate and at least three different assays were performed for each sample.
The net AUC corresponding to a sample was calculated as follows: Net AUC = AUCantioxidant − AUCblank(2)
Regression equations were calculated by plotting the net AUC against the antioxidant concentration. The ORAC value was obtained by dividing the slope of the latter curve by the slope of the Trolox curve obtained in the same assay. ORAC values was expressed as µmol of Trolox equivalent/µmol of imidazopyranotacrines. Data are expressed as mean ± SD.

In a further series the test system is HepG2 cells. Type of series: cell-based. Conditions: for Cell viability (MTT reduction, % control): 24 h, mean ± S.E.M.; for hepatotoxicity on HepG2 cells (in words): cell viability assay, 1–1000 µM. The protocol: The human hepatoma HepG2 line cells were purchased from American Type Culture Collection. The cells were cultured in Eagle’s Minimum Essential Medium (Ozyme, Montigny-le-Bretonneux, France) supplemented with 10% fetal bovine serum, 1X non-essential amino acids, 100 units/mL penicillin and […] streptomycin (Dutscher, Brumath, France). […] Prior to the experiment, cells were seeded in 96-well culture plates at a density of 0.1 × 10^6 cells per well. After 24 h of incubation, the culture medium was refreshed and 100 µL of the test compounds or DMSO (0.1%) were added. Compounds were tested at 7 concentrations (1–1000 µM) in triplicate.
Cell viability, measured as the mitochondrial activity of living cells, was determined by quantitative colorimetric assay with 3-[4,5 dimethylthiazol-2-yl]-2,5-diphenyl-tetrazolium bromide (MTT). Briefly, after 24 h of treatment, cells were incubated with 50 µL MTT (0.5 mg/mL, Sigma Aldrich) at 37 °C for 2 h. Plates were centrifuged, MTT was removed and 100 µL DMSO was distributed per well. The absorbance was read at 570 nm by microplate spectrophotometry. Cell viability was expressed as percentage over controls (DMSO, 0.1%).
(In general: Formazan colour is commonly taken as a measure of viable cells.)

Setting [4] is: read-out: EeAChE % inhibition at the highest concentration.

≈ marks a conversion by molar mass, not a printed value. Where “and” joins values, the source holds several entries; their conditions need not be identical. Identical values can stand only once. Entries after “also recorded” stand apart in the source; their conditions may differ. Like-named read-outs stand apart in the source and are kept apart here.

T1 sequence (P81908 whole entry): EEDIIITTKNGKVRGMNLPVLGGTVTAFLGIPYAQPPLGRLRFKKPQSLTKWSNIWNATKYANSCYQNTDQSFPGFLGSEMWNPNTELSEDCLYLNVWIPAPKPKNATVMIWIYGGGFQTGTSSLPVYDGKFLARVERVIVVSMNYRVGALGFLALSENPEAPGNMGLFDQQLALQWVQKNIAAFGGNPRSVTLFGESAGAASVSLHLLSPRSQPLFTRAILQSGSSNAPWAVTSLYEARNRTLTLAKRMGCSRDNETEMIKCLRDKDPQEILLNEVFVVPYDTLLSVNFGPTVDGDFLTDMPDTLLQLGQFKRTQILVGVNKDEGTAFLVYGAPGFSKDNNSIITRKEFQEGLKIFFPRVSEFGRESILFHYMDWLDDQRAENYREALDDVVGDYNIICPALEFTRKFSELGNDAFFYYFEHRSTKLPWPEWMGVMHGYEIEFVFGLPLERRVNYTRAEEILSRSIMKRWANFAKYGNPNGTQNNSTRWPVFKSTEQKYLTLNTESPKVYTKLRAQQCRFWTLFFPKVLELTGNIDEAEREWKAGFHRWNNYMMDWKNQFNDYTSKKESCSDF

On to `Cn1ccnc1C1c2ccc3cccnc3c2Oc2nc3c(c(N)c21)CCC3` (stereo not drawn) [Compound 12, 7-(1-Methyl-1H-imidazol-2-yl)-7,9,10,11-tetrahydrocyclopenta[5′,6′]pyrido[3′,2′:5,6]pyrano[3,2-h]quinolin-8-amine], for which the inhibition at 10 µM in series [1] was found to be 27.5 ± 1.1%. Further, the IC50 (in general, the concentration at which inhibition is half-maximal) in series [2] is 15.3 ± 0.6 µM. Further, in series [3], the ORAC was 1.88 ± 0.07 µmol Trolox/µmol compound.
For `CCOC(=O)C1=C(C)Oc2nc3c(c(N)c2C1c1nccn1C)CCCCC3` (stereo not drawn) [Compound 3, Ethyl 5-amino-2-methyl-4-(1-methyl-1H-imidazol-2-yl)-4,6,7,8,9,10-hexahydrocyclohepta[b]pyrano[3,2-e]pyridine-3-carboxylate], in that order: 32.2 ± 0.9%, 432 ± 84 µM and 1.99 ± 0.23 µmol Trolox/µmol compound.
Take `CC(=O)C1=C(C)Oc2nc3c(c(N)c2C1c1nccn1C)CCCC3` (stereo not drawn) [Compound 4, 1-(5-Amino-2-methyl-4-(1-methyl-1H-imidazol-2-yl)-6,7,8,9-tetrahydro-4H-pyrano[2,3-b]quinolin-3-yl)ethan-1-one]: the inhibition at 10 µM in series [1] is 24.9 ± 0.9%. In series [2], inhibition was half-maximal at 38.7 ± 1.7 µM (IC50). The “Cell viability (MTT reduction, % control)” value is given as 107.7 ± 5.1 % control in the series on HepG2 cells (HepG2, 1 µM); 105.3 ± 2.9 % control in the series with HepG2 cells (HepG2, 3 µM); 102.1 ± 2.9 % control with HepG2 cells (HepG2, 10 µM); 98.0 ± 3.1 % control in the series with HepG2 cells (HepG2, 30 µM); 104.6 ± 4.5 % control in the series on HepG2 cells (HepG2, 100 µM); 97.1 ± 3.0 % control in the series on HepG2 cells (HepG2, 300 µM). Also, the “Cell viability (MTT reduction, % control)” value in the series on HepG2 cells (HepG2, 1000 µM) came out at 96.8 ± 1.5 % control. In addition, the “hepatotoxicity on HepG2 cells (in words)” value with HepG2 cells is “non-hepatotoxic; also recorded: safe even at 300 µM; also recorded: non-toxic even at the highest tested concentration; also recorded: lack of hepatotoxicity even at very high concentration”. Moreover, the ORAC in series [3] is 2.31 µmol Trolox/µmol compound and 2.31 ± 0.29 µmol Trolox/µmol compound.
Consider “7-(1-Methyl-1H-imidazol-2-yl)-9,10,11,12-tetrahydro-7H-benzo[7,8]chromeno[2,3-b]quinolin-8-amine [Compound 10]”, for which the “eqBuChE % Inhibition at 10 μM” value in series [1] was determined as 25.0 ± 0.2%. Moreover, the IC50 in series [2] (read-out: EeAChE IC50 Values, mean ± SEM) is 10.7 ± 0.2 µM. Moreover, the “Cell viability (MTT reduction, % control)” value with HepG2 cells (HepG2, 1 µM) was found to be 101.8 ± 4.2 % control; with HepG2 cells (HepG2, 3 µM) it was 100.7 ± 2.6 % control; in the series on HepG2 cells (HepG2, 10 µM), 100.5 ± 1.9 % control; in the series with HepG2 cells (HepG2, 30 µM), 71.4 ± 7.4 % control; in the series with HepG2 cells (HepG2, 100 µM), 63.5 ± 6.2 % control; in the series with HepG2 cells (HepG2, 300 µM), 64.8 ± 5.7 % control. Besides, in the series with HepG2 cells (HepG2, 1000 µM), the “Cell viability (MTT reduction, % control)” value turned out to be 66.8 ± 4.1 % control. Further, in the series on HepG2 cells, the “hepatotoxicity on HepG2 cells (in words)” value was “more toxic than tacrine”. Moreover, in series [3], the ORAC was 2.75 ± 0.09 µmol Trolox/µmol compound.
`Cn1ccnc1C1C2=C(CC(C)(C)CC2=O)Oc2nc3c(c(N)c21)CCCC3` (stereo not drawn) [Compound 6, 11-Amino-3,3-dimethyl-12-(1-methyl-1H-imidazol-2-yl)-2,3,4,7,8,9,10,12-octahydro-1H-chromeno[2,3-b]quinolin-1-one] had an inhibition at 10 µM in series [1] of 33.5 ± 1.7%. Moreover, the IC50 in series [2] came out at 37.8 ± 1.2 µM. For the same compound, the ORAC in series [3] was 2.34 µmol Trolox/µmol compound and 2.34 ± 0.31 µmol Trolox/µmol compound.
For `CCOC(=O)C1=C(C)Oc2nc3c(c(N)c2C1c1nccn1C)CCC3` (stereo not drawn) [Compound 1, Ethyl 5-amino-2-methyl-4-(1-methyl-1H-imidazol-2-yl)-4,6,7,8-tetrahydrocyclopenta[b]pyrano[3,2-e]pyridine-3-carboxylate], the inhibition at 10 µM in series [1] is 25.6 ± 0.7%. Also, inhibition in series [2] was half-maximal at 12.9 ± 0.3 µM (IC50). Also, the ORAC in series [3] is recorded as 0.34 ± 0.03 µmol Trolox/µmol compound.
For `Cn1ccnc1C1c2c(nc3c(c2N)CCC3)Oc2ccc3ccccc3c21` (stereo not drawn) [Compound 7, 13-(1-Methyl-1H-imidazol-2-yl)-9,10,11,13-tetrahydrobenzo[5,6]chromeno[2,3-b]cyclopenta[e]pyridin-12-amine], in that order: 50.5 ± 7.3%, 8.41 ± 0.14 µM and 1.47 ± 0.13 µmol Trolox/µmol compound.
In the case of `Cn1ccnc1C1C2=C(CC(C)(C)CC2=O)Oc2nc3c(c(N)c21)CCC3` (stereo not drawn) [Compound 5, 11-Amino-7,7-dimethyl-10-(1-methyl-1H-imidazol-2-yl)-2,3,6,7,8,10-hexahydrochromeno[2,3-b]cyclopenta[e]pyridin-9(1H)-one], the inhibition at 10 µM in series [1] is 12.9 ± 0.5%. Moreover, half-maximal inhibition in series [2] (IC50) was put at 158 ± 33 µM. Besides, the ORAC in series [3] is 1.70 ± 0.33 µmol Trolox/µmol compound.
In series [1], `Cn1ccnc1C1c2c(nc3c(c2N)CCCCC3)Oc2ccc3ccccc3c21` (stereo not drawn) [Compound 9, 15-(1-Methyl-1H-imidazol-2-yl)-9,10,11,12,13,15-hexahydrobenzo[5,6]chromeno[2,3-b]cyclohepta[e]pyridin-14-amine] came in with an inhibition at 10 µM of 15.1 ± 4.7%. Further, the solubility (as a rule, the dissolved amount per volume that the medium holds) in series [2] came to 15 µM (≈ 5.95 µg/mL). In series [2] (setting [4]), the inhibition at 15 µM was less than 15%. Further, the ORAC in series [3] came out at 1.35 ± 0.13 µmol Trolox/µmol compound.
In the case of `Cn1ccnc1C1c2ccc3cccnc3c2Oc2nc3c(c(N)c21)CCCCC3` (stereo not drawn) [Compound 13, 7-(1-Methyl-1H-imidazol-2-yl)-7,9,10,11,12,13-hexahydrocyclohepta[5′,6′]pyrido[3′,2′:5,6]pyrano[3,2-h]quinolin-8-amine], in series [1], the inhibition at 10 µM amounted to 75.7 ± 2.3%. Further, the IC50 in series [2] was 30 ± 2 µM. Also, the ORAC in series [3] was 2.25 µmol Trolox/µmol compound and 2.25 ± 0.29 µmol Trolox/µmol compound.
In series [1], `Cn1ccnc1C1c2ccc3ccccc3c2Oc2nc3c(c(N)c21)CCCCC3` (stereo not drawn) [Compound 11, 7-(1-Methyl-1H-imidazol-2-yl)-7,9,10,11,12,13-hexahydrobenzo[7,8]chromeno[2,3-b]cyclohepta[e]pyridin-8-amine] gave an inhibition at 10 µM of 20.3 ± 3.7%. The same compound displayed a solubility in series [2] of 25 µM (≈ 9.91 µg/mL). Also, in series [2] (setting [4]), the inhibition at 25 µM is less than 15%. Moreover, in series [3], the ORAC is 2.33 µmol Trolox/µmol compound and 2.33 ± 0.13 µmol Trolox/µmol compound.
